Measured values from US8580746B2, “Amide linkage cyclic natriuretic peptide constructs” (Palatin Technologies, Inc., priority 2006, dated 2013).
Numbered stars: 1 amine (or outer) side, 2 acyl side, 3 side chain; on linkers, the order of the positions; unused ones are H or OH. Bridge positions count the residues as written; N and C are the ends. Square brackets hold non-standard residues; d marks the D form. Peptide text beside a SMILES is read from it. * marks the point of attachment. X1 = N=C(N)NCCC[C@H]1C(=O)N[C@@H](C(N)=O)CN1*; Glutaryl = O=C(CCCC(=O)[*:2])[*:1]; Suc = O=C(CCC(=O)[*:2])[*:1]; dNle = CCCC[C@@H](N)C(=O)O; Heptanoyl = CCCCCCC(=O)*; Nle = CCCC[C@H](N)C(=O)O; Orn = NCCC[C@H](N)C(=O)O; Dab = NCC[C@H](N)C(=O)O; Dap = NC[C@H](N)C(=O)O

What was measured:
[1] = molecular target: T1, human natriuratic peptide receptor A (NPRA) (Homo sapiens, UniProt P16066); experiment: Competitive inhibition binding assay, [125I]-ANP, membrane homogenates from HEK-hNPRA cells; conditions: for Percent Inhibition: inhibition of [125I]-ANP binding to HEK-hNPRA membranes, construct concentration not stated; for Ki: [125I]-ANP competition, HEK-hNPRA membranes
T1 sequence (P16066 33-1061): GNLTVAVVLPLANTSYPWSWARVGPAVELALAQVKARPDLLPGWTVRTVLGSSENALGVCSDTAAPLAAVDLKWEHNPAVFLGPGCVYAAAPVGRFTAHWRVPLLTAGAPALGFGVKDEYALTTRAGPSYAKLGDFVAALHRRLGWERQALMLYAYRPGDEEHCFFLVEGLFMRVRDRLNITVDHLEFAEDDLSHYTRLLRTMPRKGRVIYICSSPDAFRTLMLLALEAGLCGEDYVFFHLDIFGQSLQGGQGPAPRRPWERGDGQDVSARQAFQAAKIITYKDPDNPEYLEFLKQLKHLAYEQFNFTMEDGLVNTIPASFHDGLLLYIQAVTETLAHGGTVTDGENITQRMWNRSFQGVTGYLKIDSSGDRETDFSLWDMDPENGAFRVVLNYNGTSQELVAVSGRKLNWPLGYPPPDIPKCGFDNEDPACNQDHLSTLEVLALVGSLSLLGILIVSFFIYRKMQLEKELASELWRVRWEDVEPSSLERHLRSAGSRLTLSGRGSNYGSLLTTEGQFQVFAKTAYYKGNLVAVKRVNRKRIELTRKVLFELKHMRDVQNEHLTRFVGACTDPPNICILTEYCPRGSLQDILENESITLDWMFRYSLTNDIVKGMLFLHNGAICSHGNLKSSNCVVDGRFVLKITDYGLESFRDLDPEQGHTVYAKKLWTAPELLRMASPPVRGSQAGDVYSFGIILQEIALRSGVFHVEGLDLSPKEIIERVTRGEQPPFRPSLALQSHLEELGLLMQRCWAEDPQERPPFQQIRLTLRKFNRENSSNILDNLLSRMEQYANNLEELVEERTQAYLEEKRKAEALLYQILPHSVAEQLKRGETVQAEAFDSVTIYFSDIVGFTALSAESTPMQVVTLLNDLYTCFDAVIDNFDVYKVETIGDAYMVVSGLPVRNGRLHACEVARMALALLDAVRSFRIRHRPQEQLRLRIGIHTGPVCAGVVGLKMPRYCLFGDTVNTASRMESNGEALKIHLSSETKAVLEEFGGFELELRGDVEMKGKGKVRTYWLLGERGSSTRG
From the text: (§1) A cDNA clone that encodes for human natriuratic peptide receptor A (NPRA) was purchased from Bio S&T Inc. (Montreal, Quebec). The cDNA clone was inserted into the mammalian expression vector pcDNA3.1 (Invitrogen) and transfected into HEK-293 cells. Stable clones were selected by culture of cells in the presence of G418 sulfate. Expression of NPRA was examined by binding of [^125I]-atrial natriuretic peptide ([^125I]-ANP) to membrane homogenates prepared from clonal cell lines. HEK-hNPRA cells were maintained in culture at 37° C. in 5% CO2 in Dulbecco's Modified Eagle's Medium (DMEM) supplemented with 10% FBS, G418 sulfate (300 μg/mL) sodium glutamate (0.29 mg/mL), penicillin (100 units/mL) and streptomycin (100 ug/mL).
A competitive inhibition binding assay was performed using crude membrane homogenates prepared from HEK-hNPRA cells. To prepare membrane homogenates, cells were rinsed with phosphate-buffered saline and incubated for 15 minutes at 4° C. in hypotonic lysis buffer (10 mM Tris, pH 7.4+5 mM EDTA). Cells were transferred from plates to polypropylene tubes and homogenized. Homogenates were centrifuged at 25,000×g for 20 minutes. Pellets were resuspended in buffer consisting of 50 mM Tris (pH 7.4) and 1 mM EDTA, homogenized and centrifuged at 25,000×g for 20 minutes. Pellets were resuspended in buffer consisting of 100 mM Tris (pH 7.4) and 10 mM MgCl2 and stored at −80° C. until needed. On the day of an assay, homogenates were thawed and homogenized. Binding of [^125I]-ANP was carried out in buffer containing 25 mM Hepes (pH 7.4), 100 mM NaCl, 2 mM CaCl2, 5 mM MgCl2, 0.1% BSA and 1 mM 1,10-phenanthroline. Homogenates (1-10 μg protein/well) were incubated with [^125I]-ANP (25-30 pM) and increasing concentrations of competing ligands in Millipore filter plates for 120 minutes at 4° C. Assays were stopped by addition of cold wash buffer (phosphate-buffered saline) followed by filtration using a vacuum manifold. Bound radioactivity was determined using a gamma counter. Non-specific binding was defined by binding of [I^125]-hANP to non-transfected HEK293 membranes. Data were analyzed using GraphPad Prism® curve-fitting software.

[2] = molecular target: T2, hNPR-A (Homo sapiens, UniProt P16066); experiment: Accumulation of intracellular cGMP in HEK-293 cells that express recombinant hNPR-A; type: cell-based; conditions: HEK-hNPRA cells
T2 sequence (P16066 33-1061): T1 sequence (P16066 33-1061)
From the text: as §1
Functional evaluation of constructs was performed by measuring the accumulation of intracellular cGMP in HEK-293 cells that express recombinant hNPR-A. HEK-NPRA cells were harvested by washing and centrifugation in Cell Dissociation Buffer (Gibco, Life Technologies). Pelleted cells were resuspended in Hank's Balanced Salt Solution (HBSS) containing 10 mM Hepes (pH 7.4), 5 mM MgCl2, […], 1 mM 1,10-phenanthroline and BSA (0.5 mg/mL). Following centrifugation, cells were resuspended in the above buffer supplemented with 0.5 mM 3-isobutyl-1-methylxanthine (IBMX). Cells (˜2×10^5/well) were added to each well of a 96-well plate and incubated for 15 minutes at 37° C. Following the pre-incubation period, cells were incubated for an additional 15 minutes in the presence of increasing concentrations of constructs. The reaction was terminated by lysis of the cells with temperature shock. The reaction plate was incubated in a dry ice/ethanol bath for 15 minutes followed by incubation at 90° C. for 10 minutes. Accumulation of cGMP was measured using the cGMP Flashplate RIA (Perkin-Elmer). Data analysis and EC50 values were determined by using nonlinear regression analysis with GraphPad Prism® software.

[3] = Resistance to degradation by human neutral endopeptidase; type: in vitro ADME; conditions: isolated enzyme neprilysin; 50 μM concentration of human neutral endopeptidase; two hours; read-out: percent of construct remained after incubation for two hours
Experimental: (§2) In other tests, resistance to degradation by a 50 μM concentration of human neutral endopeptidase was determined for selected constructs.

[4] = tested on: neutral endopeptidase; experiment: as above; type: in vitro ADME; conditions: human neutral endopeptidase (isolated enzyme); 50 μM concentration of human neutral endopeptidase; two hours; read-out: percent of construct remained after incubation for two hours
Experimental: as §2

[5] = in vivo
Experimental: as §2

Row | SMILES | Percent Inhibition [1] [%] | EC50 [2] [nM] | remaining at 2 h [3] [%] | remaining at 2 h [4] [%] | Ki [1] [nM] | half-life [5] [min]
1 | CCCCCCC(=O)N[C@H]1CNC(=O)CCCC(=O)NCCC[C@@H](C(=O)N[C@@H](Cc2ccc(O)cc2)C(=O)N2C[C@H](C(N)=O)NC(=O)[C@@H]2CCCNC(=N)N)NC(=O)[C@H](CO)NC(=O)[C@H]([C@@H](C)CC)NC(=O)[C@H](CCCNC(=N)N)NC(=O)[C@H](CC(=O)O)NC(=O)[C@H](CCCC)NC(=O)[C@H](CCCNC(=N)N)NC(=O)CNC(=O)[C@@H](C)NC(=O)[C@H](Cc2ccccc2)NC(=O)[C@@H](Cc2c[nH]cn2)NC1=O [1-31] (Heptanoyl-[Dap][dH]F[dA]GR[Nle]DRIS[Orn]Y-X1; linker 1-12 via Glutaryl) | 68 | 10 |  |  |  | 
2 | CCCCCCC(=O)N[C@H]1CNC(=O)CCC(=O)NC[C@@H](C(=O)N[C@@H](Cc2ccc(O)cc2)C(=O)N2C[C@H](C(N)=O)NC(=O)[C@@H]2CCCNC(=N)N)NC(=O)[C@H](CO)NC(=O)[C@H]([C@@H](C)CC)NC(=O)[C@H](CCCNC(=N)N)NC(=O)[C@H](CC(=O)O)NC(=O)[C@H](CCCC)NC(=O)[C@H](CCCNC(=N)N)NC(=O)CNC(=O)[C@@H](C)NC(=O)[C@H](Cc2ccccc2)NC(=O)[C@@H](Cc2c[nH]cn2)NC1=O [1-37] (Heptanoyl-[Dap][dH]F[dA]GR[Nle]DRIS[Dap]Y-X1; linker 1-12 via Suc) | 100 | 0.7 |  |  |  | 
3 | CCCCCCC(=O)NCC[C@@H]1NC(=O)CC[C@@H](C(=O)N[C@@H](Cc2ccc(O)cc2)C(=O)N2C[C@H](C(N)=O)NC(=O)[C@@H]2CCCNC(=N)N)NC(=O)[C@H](CO)NC(=O)[C@H]([C@@H](C)CC)NC(=O)[C@H](CCCNC(=N)N)NC(=O)[C@H](CC(=O)O)NC(=O)[C@@H](CCCC)NC(=O)[C@H](CCCNC(=N)N)NC(=O)CNC(=O)[C@@H](C)NC(=O)[C@H](Cc2ccccc2)NC(=O)[C@H](Cc2c[nH]cn2)NC1=O [3-75] ([Dab](Heptanoyl)HF[dA]GR[dNle]DRISEY-X1; lactam N-12) | 98 | 5 | 97 |  |  | 
4 | CCCCCCC(=O)NC[C@@H]1NC(=O)CC[C@@H](C(=O)N[C@@H](Cc2ccc(O)cc2)C(=O)N2C[C@H](C(N)=O)NC(=O)[C@@H]2CCCNC(=N)N)NC(=O)[C@H](CO)NC(=O)[C@H]([C@@H](C)CC)NC(=O)[C@H](CCCNC(=N)N)NC(=O)[C@H](CC(=O)O)NC(=O)[C@@H](CCCC)NC(=O)[C@H](CCCNC(=N)N)NC(=O)CNC(=O)[C@@H](C)NC(=O)[C@H](Cc2ccccc2)NC(=O)[C@H](Cc2c[nH]cn2)NC1=O [3-76] ([Dap](Heptanoyl)HF[dA]GR[dNle]DRISEY-X1; lactam N-12) | 93 | 10 |  | 84 |  | 
5 | CCCC[C@H]1NC(=O)[C@H](CCCNC(=N)N)NC(=O)CNC(=O)[C@@H](C)NC(=O)[C@H](Cc2ccccc2)NC(=O)[C@H](Cc2c[nH]cn2)NC(=O)[C@@H](NC(=O)[C@@H](C)N)CCC(=O)NCC[C@@H](C(=O)N[C@@H](Cc2ccc(O)cc2)C(=O)N2C[C@H](C(N)=O)NC(=O)[C@@H]2CCCNC(=N)N)NC(=O)[C@H](CO)NC(=O)[C@H]([C@@H](C)CC)NC(=O)[C@H](CCCNC(=N)N)NC(=O)[C@H](CC(=O)O)NC1=O [4-90] (H-[dA]EHF[dA]GR[dNle]DRIS[Dab]Y-X1; lactam 2-13) |  | 11 | 95 |  | 40 | 
6 | CCCC[C@H]1NC(=O)[C@H](CCCNC(=N)N)NC(=O)CNC(=O)CNC(=O)[C@H](Cc2ccccc2)NC(=O)[C@H](Cc2c[nH]cn2)NC(=O)[C@@H](NC(=O)[C@@H](C)N)CC(=O)NCC[C@@H](C(=O)N[C@@H](Cc2ccc(O)cc2)C(=O)N2C[C@H](C(N)=O)NC(=O)[C@@H]2CCCNC(=N)N)NC(=O)[C@H](CO)NC(=O)[C@H]([C@@H](C)CC)NC(=O)[C@H](CCCNC(=N)N)NC(=O)[C@H](CC(=O)O)NC1=O [4-98] (H-[dA]DHFGGR[dNle]DRIS[Dab]Y-X1; lactam 2-13) |  | 0.25 |  |  | 0.6 | 6.6
7 | CCCCCCC(=O)N[C@H]1CC(=O)NCC[C@@H](C(=O)N[C@@H](Cc2ccc(O)cc2)C(=O)N2C[C@H](C(N)=O)NC(=O)[C@@H]2CCCNC(=N)N)NC(=O)[C@H](CO)NC(=O)[C@H]([C@@H](C)CC)NC(=O)[C@H](CCCNC(=N)N)NC(=O)[C@H](CC(=O)O)NC(=O)[C@H](CCCC)NC(=O)[C@H](CCCNC(=N)N)NC(=O)CNC(=O)CNC(=O)[C@H](Cc2ccccc2)NC(=O)[C@H](Cc2c[nH]cn2)NC1=O [4-137] (Heptanoyl-DHFGGR[Nle]DRIS[Dab]Y-X1; lactam 1-12) | 78 | 0.25 |  |  |  | 
8 | CCCCCCC(=O)N[C@H]1CC(=O)NCC[C@@H](C(=O)N[C@@H](Cc2ccc(O)cc2)C(=O)N2C[C@H](C(N)=O)NC(=O)[C@@H]2CCCNC(=N)N)NC(=O)[C@H](CO)NC(=O)[C@H]([C@@H](C)CC)NC(=O)[C@H](CCCNC(=N)N)NC(=O)[C@H](CC(=O)O)NC(=O)[C@@H](CCCC)NC(=O)[C@H](CCCNC(=N)N)NC(=O)CNC(=O)[C@@H](C)NC(=O)[C@H](Cc2ccccc2)NC(=O)[C@H](Cc2c[nH]cn2)NC1=O [4-138] (Heptanoyl-DHF[dA]GR[dNle]DRIS[Dab]Y-X1; lactam 1-12) | 100 | 4 | 89 |  |  | 
9 | CCCC[C@@H]1NC(=O)[C@H](CCCNC(=N)N)NC(=O)CNC(=O)CNC(=O)[C@H](Cc2ccccc2)NC(=O)[C@H](Cc2c[nH]cn2)NC(=O)[C@@H](N)CC(=O)NCC[C@@H](C(=O)N[C@@H](Cc2ccc(O)cc2)C(=O)N2C[C@H](C(N)=O)NC(=O)[C@@H]2CCCNC(=N)N)NC(=O)[C@H](CO)NC(=O)[C@H]([C@@H](C)CC)NC(=O)[C@H](CCCNC(=N)N)NC(=O)[C@H](CC(=O)O)NC1=O [4-143] (H-DHFGGR[Nle]DRIS[Dab]Y-X1; lactam 1-12) | 69 | 0.2 |  |  |  | 
